Legend:
[1] = Intrinsic clearance in rat liver microsomes; format: in vitro ADME; conditions: for microsomal CLint at 0.5 μM: pH 7.4, read-out: Cl (μL/min/mg protein) - Rat Microsomes
Description: Methods: The general procedure involved incubating test compounds with liver microsomes and subsequently detecting the compounds to determine intrinsic clearance. Clearance was estimated from the rate of depletion k (min-1), the volume of the incubation V (mL), and the amount of microsomal proteins in the incubation M (mg). Intrinsic clearance is defined by the following equation: Clint=k*V/M.
Values for CLint are expressed as μL/min/mg liver microsomes. Verapamil and dextromethorphan were used as positive controls for CYP3A4 and CYP2D6 isoforms, respectively, to confirm metabolic activity. Stock solutions were prepared in DMSO for therapeutic compounds and positive controls verapamil and dextromethorphan (10 mM for all). Working solutions were prepared by diluting stock in MeOH to reach […]. However, this concentration can be varied, e.g., when the test item is not soluble in the selected solvent.
Prior to experimentation, frozen liver microsomes were thawed in a water bath at 37° C. and kept on ice until use. The microsomes were then diluted with 50 mM potassium phosphate buffer pH 7.4 to a protein concentration of 0.56 mg/mL. To prepare test and control items in final incubation conditions, 5 μL of test compound and positive control working solutions were added to 445 μL of microsomes incubation mixture at 0.56 mg/mL and 50 μL of regenerating system.
As it relates to the automated incubation procedure for microsomes incubation, the following procedure was followed. Briefly, 150 μL of quenching solution (ACN containing an appropriate Internal Standard, i.e. Rolipram and Diclofenac for positive and negative ion mode, respectively) was manually dispensed or dispensed by using the Hamilton system in each well of 96 deep well 1 mL plates. Next, 800-1000 μL-aliquots of NADPH regenerating system were pre-warmed at 37° C. for 5 minutes. 5 μL of 50 µM test items and control were added to 445 μL of the 0.56 mg/mL microsomes solution, and the incubation mixture was pre-warmed in a 96 deep well 2 mL plate (incubation plate) at 37° C. for 5 minutes. The incubation reactions were initiated by adding 50 μL of pre-warmed NADPH regenerating system to the incubation mixtures.
50 μL-aliquots were sampled from incubation mixtures at: 0, 3, 10, 15, 30, and 45 minutes. The samples were centrifuged at 3,000 rpm for 10 minutes and further diluted in order to optimize the analytical condition prior to the LC MS/MS or Rapid Fire-MS/MS analysis. Incubations of test items were run in duplicate (n=2) with a single positive control (n=1). For sample analysis, an LC-MS/MS system was used to monitor the test samples/control to internal standard peak area ratios as representative of the test or control item's concentration. Data from test item incubation was processed to give mean values where applicable. Metabolic stability was calculated from the ratio of peak area of the remaining test or control item with internal standard versus time.
Peak areas for test and control items were integrated using Integrator Software from Agilent or Analyst or MultiQuant Software from AB SciexTM and were exported to XLFit or Morphit (The Edge), which were designed to calculate in vitro metabolic stability parameters. The integrated peak areas of the test and control items at the selected time points were divided by the respective peak areas of the IS, and the percent of parent remaining was calculated by normalizing the peak area ratio of parent to IS at 0 min. Observed rate constant (kobs) for parent degradation was calculated by determining the slope of the line of the graph of the natural log of percentage parent remaining versus time of incubation. This was scaled for the protein in the incubation relative to that in the liver.

[2] = test system: 5-HT release in rat synaptosomes; assay: Serotonin release assay in rat cortex synaptosomes; format: biochemical; conditions: for 5-HT Release (pEC50): rat cortex synaptosomes, % of maximal release with 50 μM MDMA, n=2; for SERT/DAT Release Ratio: ratio of 5-HT and DA release potency, rat synaptosomes
Description: Methods-Evaluation of Monoamine Release: The potency of therapeutic compounds for stimulating DA release was measured by an endpoint release filtration assay in a 96-well format using rat synaptosomes, essentially as described by Sandtner et al. (Mol Pharmacol., 2016; 89(1):165-75.) and Baumann et al. (Neuropsychopharmacol, 2013; 38:552-562.) with some variations. One male rat was euthanized, and striatum/cortex regions were dissected over ice. The striatum portions were weighed and put in a glass tube containing ice-cold 0.32 M sucrose (dilution 1:24 w/v) for homogenization, while the frontal cortex tissue was diluted in ice-cold 0.32 M sucrose, 1:20 w/v. Tissues were homogenized and centrifuged for 10 mins at 1000×g. The two supernatants from striatum and cortex (crude synaptosomes) were retained on ice until use.
Test compounds were then serially diluted 1:4 in neat DMSO as concentration-response curves (CRC) of 11 points. To each well of a 2-mL 96 deep-well plate (Whatman UNIPLATE 96 well) were added: 2 μL of a concentration-response curve (CRC) of test compounds or 2 μL of DMSO (no-release condition) or 2 μL of MDMA 10 mM solution (final 50 μM, for maximal release), followed by 200 μL/well of complete Krebs-phosphate buffer (126 mM NaCl, 2.4 mM KCl, 0.83 mM CaCl2), 0.8 mM MgCl2, 0.5 mM KH2PO4, 0.5 mM Na2SO4, 11.1 mM glucose, 0.05 mM pargyline, 1 mg/mL ascorbic acid, freshly added, pH 7.4), containing 1 μM reserpine to block vesicular uptake of substrate. Desipramine (100 nM) and citalopram (100 nM) were also added to the release assay buffer in order to inhibit NET and SERT uptake, respectively. The final compound dilution, then, was 1:200 in 0.5% DMSO.
The raw data (cpm) from residual radioactivity onto the filter were elaborated for the determination of pEC50/EC50 values. Specifically, the compound effect was expressed as the percent of maximal release obtained with 50 μM MDMA (100% release) in comparison to vehicle (0.5% DMSO, 0% release). Both MDMA and D-amphetamine in CRC were used as internal controls in each release experiment. In each plate, for both 0% and 100% of release, the signal window was monitored and Z′ calculations were determined using the raw data of four replicates. 5-HT release was calculated in an identical fashion, except that 5 nM 3H-serotonin was added to crude cortex synaptosomes preparation diluted 1:13 (v/v) in complete Krebs-phosphate buffer containing 1 μM Reserpine, 100 nM GBR12909 and 100 nM nomifensine to block vesicular, DAT, and NET uptake, respectively. Synaptosomes were then loaded with 3H-5HT for 60 minutes at RT. After dispensing loaded synaptosomes onto a compound plate (200 μL/well), the release reaction proceeded for an additional 15 minutes. Stop by filtration, counting, and data elaboration were performed as described for DA release. Compounds were tested in duplicate (n=2).

| SMILES | Cl (μL/min/mg protein) - Rat Microsomes [1] | 5-HT Release (pEC50) [2] | SERT/DAT Release Ratio [2] | microsomal CLint at 0.5 μM [1] [µL/min/mg] |
| --- | --- | --- | --- | --- |
| CNC(C)Cc1ccc2c(c1)OCO2 (stereo not shown) [MDMA] | 395 μL/min/mg protein | 7.0 | 2.6 |  |
| COC(=O)c1ccc2c(c1)CC(N)C2 (stereo not shown) [CMP-405, 2-aminoindane-5-methylcarboxylate] |  | 6.1 | 3.2 | 143 |
| COc1ccc2c(c1)CC(N)C2 (stereo not shown) [MEAI, 5-methoxy-2-aminoindane] |  | 6.8 | 28 | 156 |
| COC(=O)c1cc2c(cc1OC)CC(N)C2 (stereo not shown) [CMP-401] |  | 5.5 | >35 | 121 |
| COC(=O)COc1ccc2c(c1)CC(N)C2 (stereo not shown) [CMP-402] | greatest clearance | 5.0 | >10 | 2050 |
| COc1cc2c(cc1C)CC(N)C2 (stereo not shown) [MMAI, 5-methoxy-6-methyl-2-aminoindane] |  | 7.4 | 575 | 200 |

Reference: US20260159474A1, “Aminoindane Compounds and Compositions and Methods of Their Therapeutic Use” (Solvonis Therapeutics Ireland Holdings Limited, priority 2021, published 2026)
